# Test results from US8318799B2, “Therapeutic agent for substance dependence” (National University Corporation Kyushu University, priority 2004, dated 2012).
# Assays:
# male Wister/ST rats [1] = test: influence on methamphetamine-taking behavior (methamphetamine self-administration); assay type: in vivo, rat; conditions: 1.0 mg/kg intraperitoneally; FIG. 5
# Source text: FIG. 5 is a graph showing the influence of the compound of the present invention on methamphetamine self-administration.
# (§1) A catheter for self-administration of methamphetamine (inner diameter of 0.5 mm, outer diameter of 1.0 mm) was inserted into the right jugular vein of male Wister/ST rats (250 to 350 g), and the end of the catheter was anchored to just outside the right atrium. An operant box used in the experiment was equipped with 2 levers. One is an active lever by which when pressed once (fixed-ratio 1 (FR1)), infusions of a very low dose of methamphetamine (0.02 mg per injection) was paired with onset of a 6-sec tone (70 dB/7 kHz) and light (300 lux) compound stimulus.
# (§2) After the animal was allowed to get methamphetamine self-administration behavior (methamphetamine-taking behavior) by the self-administration experiment for 10 days (2 hours per session), physiological saline was substituted for methamphetamine, to carry out an extinction process for 5 days (1 hour per session without drug-associated cue).
# For examining the influence of the compound of the present invention on methamphetamine-taking behavior, 1.0 mg/kg of the compound of the present invention was administered intraperitoneally.
# male Wister/ST rats [2] = test: influence on occurrence of substance-seeking behavior by the compound itself; assay type: in vivo, rat; conditions: high dose 10 mg/kg i.p.; FIG. 6
# male Wister/ST rats [3] = test: methamphetamine-seeking behavior induced by drug-associated cue (drug self-administration procedure, after extinction); assay type: in vivo, rat; conditions: for antagonism in cue-induced methamphetamine-seeking behavior on coadministration with the compound of the present invention: 30 minutes before cue, FIG. 7
# Source text: (§3) First, an experimental animal is allowed to learn the drug self-administration behavior of pressing a lever to attain a substance. The animal is given a substance-containing solution simultaneously with a light-tone stimulus. After the animal is allowed to learn the substance self-administration behavior, the substance-containing solution is replaced by physiological saline. The behavior of eagerly pressing the lever for acquiring the substance comes to be observed in the experimental animal having learned the substance self-administration behavior. This behavior is regarded as substance-seeking behavior. […] However, the substance-seeking behavior will recur by the same light-tone stimulus (drug-associated stimuli) used during the self-administration training to the experimental animal or by administrating a substance inducing the central stimulant effect. This experimental system was used to examine the effect of various compounds.
# (§4) Using methamphetamine as an addictive substance, the following experiments were carried out according to a method described in Neuropsychopharmacology, 29, 1470-1478 (2004).
# as §1, §2
# On day 6 of the extinction process, substance-seeking behavior (“craving”) was induced by drug-associated cue (tone and light) or by administering a low dose of methamphetamine (1.0 mg/kg, intraperitoneal (i.p.) administration).
# Thirty minutes before this stimulation with the drug-associated cue or by the administration of a low dose of methamphetamine, […] administration of the compound of the present invention (0.32, 1.0 mg/kg, i.p.) was carried out, and a change in the methamphetamine-seeking behavior induced by drug-associated cue or by forced administration of methamphetamine was observed. […]
# male Wister/ST rats [4] = test: methamphetamine-seeking behavior induced by forced administration of a low dose of methamphetamine (drug self-administration procedure, after extinction); assay type: in vivo, rat
# Source text: as §3, §4, §1
# After the animal was allowed to get methamphetamine self-administration behavior (methamphetamine-taking behavior) by the self-administration experiment for 10 days (2 hours per session), physiological saline was substituted for methamphetamine, to carry out an extinction process for 5 days (1 hour per session without drug-associated cue). […]
# [5] = Eur. J. Pharmacol. 421, 181-189 (2001); cited from earlier work
structure (smiles),measurement,setting,value
"CCCNC(CCC)Cc1cc2ccccc2o1 (single isomer, unassigned; (-)) [the compound of the present invention, (−)-1-(benzofuran-2-yl)-2-propylaminopentane]",influence on methamphetamine-taking behavior (number of active lever pressings for self-administration),male Wister/ST rats [1],did not exert any influence
same,occurrence of methamphetamine-seeking behavior after the compound alone,male Wister/ST rats [2],"although weak, caused methamphetamine-seeking behavior"
same,methamphetamine-seeking behavior induced by drug-associated cue,"male Wister/ST rats [3]; repeated administration 1.0 mg/kg i.p. in the extinction process for 5 days, FIG. 3",suppressed significantly
same,"methamphetamine-seeking behavior (number of active lever-pressings, 30 minutes) induced by drug-associated cue","male Wister/ST rats [3]; single administration 0.32, 1.0 mg/kg i.p., 30 minutes before stimulation, day 6 of extinction, FIG. 1",suppressed significantly and dose-dependently
same,methamphetamine-seeking behavior induced by forced administration of methamphetamine,"male Wister/ST rats [4]; repeated administration 1.0 mg/kg i.p. in the extinction process for 5 days, FIG. 4",suppressed significantly
same,"methamphetamine-seeking behavior (number of active lever-pressings, 30 minutes) induced by forced administration of methamphetamine","male Wister/ST rats [4]; single administration 0.32, 1.0 mg/kg i.p., 30 minutes before methamphetamine 1.0 mg/kg i.p., day 6 of extinction, FIG. 2",suppressed significantly and dose-dependently
same,reduction in spontaneous motor activity induced by reserpine,[5],improves
"CN1CCc2cc(Cl)c(O)cc2[C@@H](c2ccccc2)C1.Cl [SCH23390, R-(+)-7-chloro-8-hydroxy-3-methyl-1-phenyl-2,3,4,5-tetrahydro-1H-3-benza zepine hydrochloride, reference compound]",antagonism in cue-induced methamphetamine-seeking behavior on coadministration with the compound of the present invention,"male Wister/ST rats [3]; SCH23390 0.0001 mg/kg s.c. with the compound of the present invention (0.32, 1.0 mg/kg i.p.)",showed a tendency to be antagonized
"CCN1CCCC1CNC(=O)c1cc(S(=O)(=O)CC)ccc1OC (stereo not shown) [sultopride, reference compound]",antagonism in cue-induced methamphetamine-seeking behavior on coadministration with the compound of the present invention,"male Wister/ST rats [3]; sultopride 10 mg/kg i.p. with the compound of the present invention (0.32, 1.0 mg/kg i.p.)",not
same,antagonism in methamphetamine-induced methamphetamine-seeking behavior on coadministration with the compound of the present invention,"male Wister/ST rats [4]; sultopride 10 mg/kg i.p. with the compound of the present invention (0.32, 1.0 mg/kg i.p.), 30 minutes before low dose of methamphetamine, FIG. 8",not
